Literature values as cited in patent publication US20020039567A1, “Methods of treating bone or cartilage conditions by the administration of creatine” (priority 1998, published 2002).

Key:
[1] = tested on: CK activity in chondroblasts and osteoblasts; details: cited from earlier work
[2] = tested on: chick limb bud mesenchymal cells; details: cited from earlier work; for mineralization: addition of 1 and 2 mM ATP or 2 mM PCr; for rate of cell proliferation, rate of matrix synthesis, mean crystallite length, rate of mineral deposition: contrasted with cultures supplemented with inorganic phosphate
embryonic chick femora = details: cited from earlier work
SaOS-2 cells = details: cited from earlier work
[3] = tested on: CK activity in rat epiphyseal cartilage cells; details: cited from earlier work

**Q.** What does the source list for `CC/C(=C(\c1ccccc1)c1ccc(OCCN(C)C)cc1)c1ccccc1` [tamoxifen]?
**A.** effect of tamoxifen by itself ([1]; high concentrations): stimulatory effects; effect of E2 in presence of tamoxifen ([1]; high levels of tamoxifen): inhibited

**Q.** With `Nc1ncnc2c1ncn2[C@@H]1O[C@H](COP(=O)(O)OP(=O)(O)OP(=O)(O)O)[C@@H](O)[C@H]1O` [ATP] as the compound, how does the mineralization [2] read?
**A.** promoted

**Q.** And the “rate of cell proliferation, rate of matrix synthesis, mean crystallite length, rate of mineral deposition” value [2]?
**A.** does not alter

**Q.** With phosphocreatine [PCr] as the compound, how does the “perichondral ossification in the diaphysis” value (embryonic chick femora; 0.1 mM in chick embryo extract with 20% horse serum) read?
**A.** accelerated

**Q.** What about the “deposition of calcium in the cartilage matrix of the epiphysis” value (embryonic chick femora; very crude preparations at 0.1 mM in chick embryo extract with 20% horse serum) of the same compound?
**A.** accelerated

**Q.** And the mineralization [2]?
**A.** promoted

**Q.** And the “rate of cell proliferation, rate of matrix synthesis, mean crystallite length, rate of mineral deposition” value [2]?
**A.** does not alter

**Q.** And the “alkaline phosphatase (ALP) activity” value (SaOS-2 cells)?
**A.** increases

**Q.** With `C[C@]12CC[C@@H]3c4ccc(O)cc4CC[C@H]3[C@@H]1CC[C@@H]2O` [E2, 17b-estradiol] as the compound, how does the “increase in CK activity” value [3] read?
**A.** 40%
